ChEMBL document CHEMBL1142842, “Trifluoromethylation of flavonoids and anti-tumor activity of the trifluoromethylated flavonoid derivatives” (2005)

How the values were obtained:
U2OS [1] = assay: In vitro effect on the S phase of cell cycle of U2OS cells upon incubation at 37 degree for 24 hours in FCM assay at concentration of 500 nM; type: functional, Homo sapiens
U2OS [2] = assay: In vitro effect on the G1 phase of cell cycle of U2OS cells upon incubation at 37 degree for 24 hours in FCM assay at concentration of 500 nM; type: functional, Homo sapiens
U2OS [3] = assay: In vitro effect on the G2/M phase of cell cycle of U2OS cells upon incubation at 37 degree for 24 hours in FCM assay at concentration of 500 nM; type: functional, Homo sapiens
U2OS [4] = assay: In vitro effect on the G2/M phase of cell cycle of U2OS cells upon incubation at 37 degree for 24 hours in FCM assay; all the cell died at tested concentration (500 nM); type: functional, cell-based; details: Homo sapiens
U2OS [5] = assay: In vitro effect on the S phase of cell cycle of U2OS cells upon incubation at 37 degree for 24 hours in FCM assay; all the cell died at tested concentration (500 nM); type: functional, cell-based; details: Homo sapiens
U2OS [6] = assay: In vitro effect on the G1 phase of cell cycle of U2OS cells upon incubation at 37 degree for 24 hours in FCM assay; all the cell died at tested concentration (500 nM); type: functional, cell-based; details: Homo sapiens

Row | Structure (SMILES) | Content of cell cycle (U2OS [1]) | Content of cell cycle (U2OS [2]) | Content of cell cycle (U2OS [3]) | other results
1 | COc1cc(OC)c2c(=O)cc(-c3cc(C(F)(F)F)c(OC)c(C(F)(F)F)c3)oc2c1 | 44.92% | 55.08% | 0% | –
2 | COc1ccc(-c2oc3cc(OC)cc(OC)c3c(=O)c2C(F)(F)F)cc1 | 49.24% | 44.09% | 6.67% | –
3 | COc1ccc(-c2c(C(F)(F)F)oc3cc(OC)cc(OC)c3c2=O)cc1 | – | – | – | Activity (U2OS [1]): 48.02%; Activity (U2OS [2]): 46.69%; Activity (U2OS [3]): 5.29%
4 | COc1cc(OC)c2c(=O)c(C(F)(F)F)c(-c3ccccc3)oc2c1 | 31.95% | 53.06% | 14.99% | –
5 | COc1cc(OC)c2c(c1)OC(c1ccccc1)=CC2(O)C(F)(F)F (stereo not given) | – | – | – | Activity (U2OS [4]): all the cells died at tested concentration (500 nM); Activity (U2OS [5]): all the cells died at tested concentration (500 nM); Activity (U2OS [6]): all the cells died at tested concentration (500 nM)
